Legend:
Format in all cases: in vivo
[1] = tested on: barnyardgrass (Echinochloa crus-galli); experiment: Test G Pre-Emergence Protocol; conditions: Echinochloa crus-galli, pre-emergence, 312 h, evaluated after 13 days
Procedure, shortened: (§1)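 Seeds were sown in standard soil and kept one day in a glasshouse (24/16° C day/night, 14 h light, 65% humidity), then sprayed with compound in acetone/water (50:50) containing 0.5% Tween 20 at 15.625, 62.5 or 250 g/ha. Damage was scored after 13 days (0 = none, 100 = total).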

corn (Zea mays) [2] = experiment: Test G Pre-Emergence Protocol; conditions: Zea mays, pre-emergence, 312 h, evaluated after 13 days
Procedure, shortened: as §1

[3] = tested on: giant foxtail (Setaria faberi); experiment: Test G Pre-Emergence Protocol; conditions: Setaria faberi, pre-emergence, 312 h, evaluated after 13 days
Procedure, shortened: as §1

[4] = tested on: ivy-leaved morning glory (Ipomoea hederacea); experiment: Test G Pre-Emergence Protocol; conditions: Ipomoea, pre-emergence, 312 h, evaluated after 13 days
Procedure, shortened: as §1

[5] = tested on: redroot pigweed (Amaranthus retroflexus); experiment: Test G Pre-Emergence Protocol; conditions: Amaranthus retroflexus, pre-emergence, 312 h, evaluated after 13 days
Procedure, shortened: as §1

[6] = tested on: velvetleaf (Abutilon theophrasti); experiment: Test G Pre-Emergence Protocol; conditions: Abutilon theophrasti, pre-emergence, 312 h, evaluated after 13 days
Procedure, shortened: as §1

[7] = tested on: barnyardgrass (Echinochloa crus-galli); experiment: Test G Post-Emergence Protocol; conditions: Echinochloa crus-galli, post-emergence, 312 h
Procedure, shortened: (§2)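 Damage was rated 13 days after treatment from 0 (none) to 100 (plant killed). Compound was applied as a spray at 15.625, 62.5 or 250 g/ha in 50:50 acetone/water containing 0.5% Tween 20, onto 8-day-old potted plants kept in a glasshouse (24/16 °C, 14 h light, 65% humidity).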

corn (Zea mays) [8] = experiment: Test G Post-Emergence Protocol; conditions: Zea mays, post-emergence, 312 h
Procedure, shortened: as §2

[9] = tested on: giant foxtail (Setaria faberi); experiment: Test G Post-Emergence Protocol; conditions: Setaria faberi, post-emergence, 312 h
Procedure, shortened: as §2

[10] = tested on: ivy-leaved morning glory (Ipomoea hederacea); experiment: Test G Post-Emergence Protocol; conditions: Ipomoea, post-emergence, 312 h
Procedure, shortened: as §2

[11] = tested on: redroot pigweed (Amaranthus retroflexus); experiment: Test G Post-Emergence Protocol; conditions: Amaranthus retroflexus, post-emergence, 312 h
Procedure, shortened: as §2

[12] = tested on: velvetleaf (Abutilon theophrasti); experiment: Test G Post-Emergence Protocol; conditions: Abutilon theophrasti, post-emergence, 312 h
Procedure, shortened: as §2

Compound: Cc1cnc(NC(=O)[C@@H]2C(=O)N(C)C[C@H]2c2ccc(C(F)(F)F)cc2)s1 (racemic) [Compound 1570]
- pest or weed control at 15.625 g/ha ([1]; 15.625 g ai/ha, read-out: Barnyard grass damage rating (100=total damage to plant; 0=no damage to plant)): 0%
- pest or weed control at 62.5 g/ha ([1]; 62.5 g ai/ha, 100=total damage to plant, 0=no damage to plant, read-out: plant damage rating, Barnyardgrass): 0%
- pest or weed control at 250 g/ha ([1]; 250 g ai/ha, read-out: Barnyardgrass damage rating (100=total damage to plant; 0=no damage to plant)): 0%
- plant injury at 15.625 g/ha (corn (Zea mays) [2]; 15.625 g ai/ha, read-out: Corn damage rating (100=total damage to plant; 0=no damage to plant)): 0%
- plant injury at 62.5 g/ha (corn (Zea mays) [2]; 62.5 g ai/ha, 100=total damage to plant, 0=no damage to plant, read-out: plant damage rating, Corn): 0%
- plant injury at 250 g/ha (corn (Zea mays) [2]; 250 g ai/ha, read-out: Corn damage rating (100=total damage to plant; 0=no damage to plant)): 0%
- pest or weed control at 15.625 g/ha ([3]; 15.625 g ai/ha, read-out: Foxtail, Giant damage rating (100=total damage to plant; 0=no damage to plant)): 0%
- pest or weed control at 62.5 g/ha ([3]; 62.5 g ai/ha, 100=total damage to plant, 0=no damage to plant, read-out: plant damage rating, Foxtail, Giant): 0%
- pest or weed control at 250 g/ha ([3]; 250 g ai/ha, read-out: Foxtail, Giant damage rating (100=total damage to plant; 0=no damage to plant)): 0%
- pest or weed control at 15.625 g/ha ([4]; 15.625 g ai/ha, read-out: Morning-glory, Ivy-leaved damage rating (100=total damage to plant; 0=no damage to plant)): 0%
- pest or weed control at 62.5 g/ha ([4]; 62.5 g ai/ha, 100=total damage to plant, 0=no damage to plant, read-out: plant damage rating, Morningglory, Ivy-leaved): 0%
- pest or weed control at 250 g/ha ([4]; 250 g ai/ha, read-out: Morningglory, Ivy-leaved damage rating (100=total damage to plant; 0=no damage to plant)): 0%
- pest or weed control at 15.625 g/ha ([5]; 15.625 g ai/ha, read-out: Pigweed, Redroot damage rating (100=total damage to plant; 0=no damage to plant)): 0%
- pest or weed control at 62.5 g/ha ([5]; 62.5 g ai/ha, 100=total damage to plant, 0=no damage to plant, read-out: plant damage rating, Pigweed, Redroot): 0%
- pest or weed control at 250 g/ha ([5]; 250 g ai/ha, read-out: Pigweed, Redroot damage rating (100=total damage to plant; 0=no damage to plant)): 0%
- pest or weed control at 15.625 g/ha ([6]; 15.625 g ai/ha, read-out: Velvetleaf damage rating (100=total damage to plant; 0=no damage to plant)): 0%
- pest or weed control at 62.5 g/ha ([6]; 62.5 g ai/ha, 100=total damage to plant, 0=no damage to plant, read-out: plant damage rating, Velvetleaf): 0%
- pest or weed control at 250 g/ha ([6]; 250 g ai/ha, read-out: Velvetleaf damage rating (100=total damage to plant; 0=no damage to plant)): 0%
- pest or weed control at 15.625 g/ha ([7]; 15.625 g ai/ha, evaluated after 13 days (100=total damage to plant; 0=no damage to plant), read-out: Barnyardgrass damage rating): 0%
- pest or weed control at 62.5 g/ha ([7]; 62.5 g ai/ha, evaluated after 13 days, read-out: Barnyardgrass damage rating (100=total damage to plant; 0=no damage to plant)): 0%
- pest or weed control at 250 g/ha ([7]; 250 g ai/ha, evaluated after 13 days, read-out: damage to plant, Barnyardgrass (100=total damage to plant; 0=no damage to plant)): 10%
- plant injury at 15.625 g/ha (corn (Zea mays) [8]; 15.625 g ai/ha, evaluated after 13 days (100=total damage to plant; 0=no damage to plant), read-out: Corn damage rating): 0%
- plant injury at 62.5 g/ha (corn (Zea mays) [8]; 62.5 g ai/ha, evaluated after 13 days, read-out: Corn damage rating (100=total damage to plant; 0=no damage to plant)): 0%
- plant injury at 250 g/ha (corn (Zea mays) [8]; 250 g ai/ha, evaluated after 13 days, read-out: damage to plant, Corn (100=total damage to plant; 0=no damage to plant)): 0%
- pest or weed control at 15.625 g/ha ([9]; 15.625 g ai/ha, evaluated after 13 days (100=total damage to plant; 0=no damage to plant), read-out: Foxtail, Giant damage rating): 0%
- pest or weed control at 62.5 g/ha ([9]; 62.5 g ai/ha, evaluated after 13 days, read-out: Foxtail, Giant damage rating (100=total damage to plant; 0=no damage to plant)): 0%
- pest or weed control at 250 g/ha ([9]; 250 g ai/ha, evaluated after 13 days, read-out: damage to plant, Foxtail, Giant (100=total damage to plant; 0=no damage to plant)): 20%
- pest or weed control at 15.625 g/ha ([10]; 15.625 g ai/ha, evaluated after 13 days (100=total damage to plant; 0=no damage to plant), read-out: Morningglory, Ivy-leaved damage rating): 0%
- pest or weed control at 62.5 g/ha ([10]; 62.5 g ai/ha, evaluated after 13 days, read-out: Morningglory, Ivy-leaved damage rating (100=total damage to plant; 0=no damage to plant)): 0%
- pest or weed control at 250 g/ha ([10]; 250 g ai/ha, evaluated after 13 days, read-out: damage to plant, Morningglory, Ivy-leaved (100=total damage to plant; 0=no damage to plant)): 10%
- pest or weed control at 15.625 g/ha ([11]; 15.625 g ai/ha, evaluated after 13 days (100=total damage to plant; 0=no damage to plant), read-out: Pigweed, Redroot damage rating): 0%
- pest or weed control at 62.5 g/ha ([11]; 62.5 g ai/ha, evaluated after 13 days, read-out: Pigweed, Redroot damage rating (100=total damage to plant; 0=no damage to plant)): 0%
- pest or weed control at 250 g/ha ([11]; 250 g ai/ha, evaluated after 13 days, read-out: damage to plant, Pigweed, Redroot (100=total damage to plant; 0=no damage to plant)): 0%
- pest or weed control at 15.625 g/ha ([12]; 15.625 g ai/ha, evaluated after 13 days (100=total damage to plant; 0=no damage to plant), read-out: Velvetleaf damage rating): 0%
- pest or weed control at 62.5 g/ha ([12]; 62.5 g ai/ha, evaluated after 13 days, read-out: Velvetleaf damage rating (100=total damage to plant; 0=no damage to plant)): 0%
- pest or weed control at 250 g/ha ([12]; 250 g ai/ha, evaluated after 13 days, read-out: damage to plant, Velvetleaf (100=total damage to plant; 0=no damage to plant)): 0%
